Source: ChEMBL document CHEMBL3885881, “DrugMatrix”

Species: Rattus norvegicus
Test: DrugMatrix - Regimen: Daily Repeat
Format: toxicity, organism-based, Sprague-Dawley
Design: regimen Daily Repeat, gender Male, age 6-8 weeks
Settings: in vivo, vehicle 100 % SALINE; for ABSOLUTE BASOPHIL / ABSOLUTE EOSINOPHIL / ABSOLUTE LYMPHOCYTE / ABSOLUTE MONOCYTE / ABSOLUTE SEGMENTED NEUTROPHIL / BASOPHIL / EOSINOPHIL / ERYTHROCYTE COUNT / HEMOGLOBIN / LEUKOCYTE COUNT / LYMPHOCYTE / MEAN CORPUSCULAR HEMOGLOBIN / MEAN CORPUSCULAR HEMOGLOBIN CONCENTRATION / MEAN CORPUSCULAR VOLUME / NUCLEATED RED BLOOD CELLS / PLATELET COUNT: tissue Blood
[1] = iv, 0.004 mg/kg, 72 h, dose level Low, time 3 day
[2] = iv, 0.004 mg/kg, 72 h, tissue Plasma, dose level Low, time 3 day
[3] = iv, 0.004 mg/kg, 120 h, dose level Low, time 5 day
[4] = iv, 0.004 mg/kg, 120 h, tissue Plasma, dose level Low, time 5 day
[5] = sc, 0 mg/kg, 72 h, route mini-PUMP - SUBCUTANEOUS, dose level Control, time 3 day
[6] = sc, 0 mg/kg, 72 h, tissue Plasma, route mini-PUMP - SUBCUTANEOUS, dose level Control, time 3 day

## CNC[C@H](O)c1ccc(O)c(O)c1 [EPINEPHRINE]
[1]
  ABSOLUTE BASOPHIL: 0 CELLS/uL
  ABSOLUTE EOSINOPHIL: 127.67 CELLS/uL
  ABSOLUTE LYMPHOCYTE: 11755 CELLS/uL
  ABSOLUTE MONOCYTE: 0 CELLS/uL
  ABSOLUTE SEGMENTED NEUTROPHIL: 884 CELLS/uL
  BASOPHIL: 0%
  EOSINOPHIL: 1%
  ERYTHROCYTE COUNT: 5.71 x10E6/uL
  HEMOGLOBIN: 14.07 G/DL
  LEUKOCYTE COUNT: 12.77 x10E3/uL
  LYMPHOCYTE: 92%
  MEAN CORPUSCULAR HEMOGLOBIN: 24.73 pg
  MEAN CORPUSCULAR HEMOGLOBIN CONCENTRATION: 37.8 G/DL
  MEAN CORPUSCULAR VOLUME: 65.37 fL
  NUCLEATED RED BLOOD CELLS: 0 /100WBC
  PLATELET COUNT: 1271 x10E3/uL
[2]
  ALANINE AMINOTRANSFERASE: 57.33 u/L
  ALBUMIN: 4.43 G/DL
  ALKALINE PHOSPHATASE: 425 u/L
  ASPARTATE AMINOTRANSFERASE: 75 u/L
  BLOOD UREA NITROGEN: 14 mg/dL
  CARBON DIOXIDE: 27 mmol/L
  CHLORIDE: 101.33 MEQ/L
  CHOLESTEROL: 80 mg/dL
  CREATINE PHOSPHOKINASE: 187.33 u/L
  CREATININE: 0.23 mg/dL
  LACTATE DEHYDROGENASE: 118.67 u/L
  LIPASE: 9 u/L
  PHOSPHORUS: 12.7 mg/dL
  POTASSIUM: 6.89 MEQ/L
  SODIUM: 145.07 MEQ/L
  TOTAL PROTEIN: 6.1 G/DL
[3]
  ABSOLUTE BASOPHIL: 0 CELLS/uL
  ABSOLUTE EOSINOPHIL: 147.67 CELLS/uL
  ABSOLUTE LYMPHOCYTE: 10984 CELLS/uL
  ABSOLUTE MONOCYTE: 0 CELLS/uL
  ABSOLUTE SEGMENTED NEUTROPHIL: 1368.33 CELLS/uL
  BASOPHIL: 0%
  EOSINOPHIL: 1%
  ERYTHROCYTE COUNT: 5.59 x10E6/uL
  HEMOGLOBIN: 13.2 G/DL
  LEUKOCYTE COUNT: 12.5 x10E3/uL
  LYMPHOCYTE: 87.33%
  MEAN CORPUSCULAR HEMOGLOBIN: 23.63 pg
  MEAN CORPUSCULAR HEMOGLOBIN CONCENTRATION: 37.23 G/DL
  MEAN CORPUSCULAR VOLUME: 63.47 fL
  NUCLEATED RED BLOOD CELLS: 0 /100WBC
  PLATELET COUNT: 1309.33 x10E3/uL
[4]
  ALANINE AMINOTRANSFERASE: 48 u/L
  ALBUMIN: 4.47 G/DL
  ALKALINE PHOSPHATASE: 367.33 u/L
  ASPARTATE AMINOTRANSFERASE: 79 u/L
  BLOOD UREA NITROGEN: 16 mg/dL
  CARBON DIOXIDE: 24 mmol/L
  CHLORIDE: 103 MEQ/L
  CHOLESTEROL: 67.33 mg/dL
  CREATINE PHOSPHOKINASE: 204.67 u/L
  CREATININE: 0.23 mg/dL
  LACTATE DEHYDROGENASE: 102.67 u/L
  LIPASE: 8 u/L
  PHOSPHORUS: 13.37 mg/dL
  POTASSIUM: 6.61 MEQ/L
  SODIUM: 145.67 MEQ/L
  TOTAL PROTEIN: 6.3 G/DL
[5]
  ABSOLUTE BASOPHIL: 0 CELLS/uL
  ABSOLUTE EOSINOPHIL: 77.17 CELLS/uL
  ABSOLUTE LYMPHOCYTE: 14293.83 CELLS/uL
  ABSOLUTE MONOCYTE: 354 CELLS/uL
  ABSOLUTE SEGMENTED NEUTROPHIL: 1658.33 CELLS/uL
  BASOPHIL: 0%
  EOSINOPHIL: 0.5%
  ERYTHROCYTE COUNT: 6.27 x10E6/uL
  HEMOGLOBIN: 13.4 G/DL
  LEUKOCYTE COUNT: 16.38 x10E3/uL
  LYMPHOCYTE: 87.17%
  MEAN CORPUSCULAR HEMOGLOBIN: 21.42 pg
  MEAN CORPUSCULAR HEMOGLOBIN CONCENTRATION: 36.27 G/DL
  MEAN CORPUSCULAR VOLUME: 59.03 fL
  NUCLEATED RED BLOOD CELLS: 0 /100WBC
  PLATELET COUNT: 904.67 x10E3/uL
[6]
  ALANINE AMINOTRANSFERASE: 48.33 u/L
  ALBUMIN: 3.82 G/DL
  ALKALINE PHOSPHATASE: 282.33 u/L
  ASPARTATE AMINOTRANSFERASE: 86.83 u/L
  BLOOD UREA NITROGEN: 20.17 mg/dL
  CARBON DIOXIDE: 34.67 mmol/L
  CHLORIDE: 102 MEQ/L
  CHOLESTEROL: 71.5 mg/dL
  CREATININE: 0.2 mg/dL
  LACTATE DEHYDROGENASE: 159 u/L
  LIPASE: 9 u/L
  PHOSPHORUS: 10.12 mg/dL
  POTASSIUM: 5.92 MEQ/L
  SODIUM: 147.8 MEQ/L
  TOTAL BILIRUBIN: 0.2 mg/dL
